# Literature values in US20250345266A1, “READY-TO-INFUSE OXYTOCIN COMPOSITIONS” (AMNEAL PHARMACEUTICALS LLC, priority 2024, published 2025).
smiles,measurement,value
CC[C@H](C)[C@@H]1NC(=O)[C@H](Cc2ccc(O)cc2)NC(=O)[C@@H](N)CSSC[C@@H](C(=O)N2CCC[C@H]2C(=O)N[C@@H](CC(C)C)C(=O)NCC(N)=O)NC(=O)[C@H](CC(N)=O)NC(=O)[C@H](CCC(N)=O)NC1=O [Oxytocin],half-life,about 3 minutes
